For this assay, the target named is T1, vaccinia virus TOP1 (vaccinia DNA Topoisomerase I) (Vaccinia virus WR, UniProt P68698).
T1 construct: gene OPG111; TOP1 described as 314 amino acids; amine-coupled to GLH chip
As to the kind of experiment: biochemical. In kind it is binding.

`CC1COc2c(N3CCN(C)CC3)c(F)cc3c(=O)c(C(=O)O)cn1c23` (stereo not shown) [Ofloxacin] displayed an equilibrium dissociation constant (Kd) of 5.46 µM.

For the compound `O=C(/C=C/c1ccc(O)c(O)c1)O[C@H](Cc1ccc(O)c(O)c1)C(=O)O` [Rosmarinic acid], binding was characterised by a dissociation constant (Kd) of 2.16 µM.

Consider `C[C@@H]1O[C@@H](Oc2c(-c3ccc(O)c(O)c3)oc3cc(O)cc(O)c3c2=O)[C@H](O)[C@H](O)[C@H]1O` [Quercitrin], for which the affinity, expressed as Kd, was 4.77 µM. Compared with the last compound, the Kd is about 2.2-fold higher.

Consider `C[C@@H]1O[C@@H](Oc2c(-c3cc(O)c(O)c(O)c3)oc3cc(O)cc(O)c3c2=O)[C@H](O)[C@H](O)[C@H]1O` [Myricitrin], for which the Kd turned out to be 3.54 µM.

The term Kd denotes the constant that tells how readily two partners part at equilibrium.

Source of the values: article PMC9919579 (Molecules, 2023).
